# According to PubChem BioAssay AID256 (DTP/NCI, 2004):
# Values joined by “and” are separate entries in the source; they are usually repeats but may differ in a detail not shown here. Equal values may be shown once. Toxic doses and inconclusive results are not listed.
# Test system: CD2F1 mice, L1210 leukemia ip, survival T/C
# Experiment: NCI In Vivo Anticancer Drug Screen. Data for tumor model L1210 Leukemia (intraperitoneal) in CD2F1 (CDF1) mice
# Conditions: higher = longer survival
# Summary of the method: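 In this screen, transplantable tumors were grown in mice given either the compound or its vehicle. Results were expressed as the treated measurement relative to the control measurement.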
# [1] = endpoint: mean survival time, dose: 100.0 mg/kg/injection, schedule: Q01DX001 (ip), vehicle: saline with Tween-80
# [2] = endpoint: mean survival time, dose: 100.0 mg/kg/injection, schedule: Q04DX002 (ip), vehicle: saline with Tween-80
# [3] = endpoint: mean survival time, dose: 100.0 mg/kg/injection, schedule: Q04DX003 (ip), vehicle: saline with Tween-80
# [4] = endpoint: mean survival time, dose: 200.0 mg/kg/injection, schedule: Q01DX001 (ip), vehicle: saline with Tween-80
# [5] = endpoint: mean survival time, dose: 200.0 mg/kg/injection, schedule: Q04DX002 (ip), vehicle: saline with Tween-80
# [6] = endpoint: mean survival time, dose: 200.0 mg/kg/injection, schedule: Q04DX003 (ip), vehicle: saline with Tween-80
# [7] = endpoint: mean survival time, dose: 400.0 mg/kg/injection, schedule: Q01DX001 (ip), vehicle: saline with Tween-80
# [8] = endpoint: mean survival time, dose: 400.0 mg/kg/injection, schedule: Q04DX002 (ip), vehicle: saline with Tween-80
# [9] = endpoint: mean survival time, dose: 400.0 mg/kg/injection, schedule: Q04DX003 (ip), vehicle: saline with Tween-80
# [10] = endpoint: mean survival time, dose: 200.0 mg/kg/injection, schedule: Q01DX009 (ip), vehicle: saline with Tween-80
# [11] = endpoint: mean survival time, dose: 400.0 mg/kg/injection, schedule: Q01DX009 (ip), vehicle: saline with Tween-80
# [12] = endpoint: mean survival time, dose: 100.0 mg/kg/injection, schedule: Q01DX001 (ip), vehicle: saline
# [13] = endpoint: mean survival time, dose: 200.0 mg/kg/injection, schedule: Q01DX001 (ip), vehicle: saline
# [14] = endpoint: mean survival time, dose: 400.0 mg/kg/injection, schedule: Q01DX001 (ip), vehicle: saline
smiles,measurement,setting,value
C[CH2][Sn]([F])([CH2]C)[CH2]C,T/C,"endpoint: mean survival time, dose: 0.37 mg/kg/injection, schedule: Q01DX009 (ip), vehicle: saline with Tween-80",98 % of control
same,T/C,"endpoint: mean survival time, dose: 0.75 mg/kg/injection, schedule: Q01DX009 (ip), vehicle: saline with Tween-80",101 % of control
same,T/C,"endpoint: mean survival time, dose: 1.5 mg/kg/injection, schedule: Q01DX009 (ip), vehicle: saline with Tween-80",104 % of control
same,T/C,"endpoint: mean survival time, dose: 3.0 mg/kg/injection, schedule: Q01DX009 (ip), vehicle: saline with Tween-80",102 % of control
same,T/C,"endpoint: mean survival time, dose: 6.0 mg/kg/injection, schedule: Q01DX009 (ip), vehicle: saline with Tween-80",98 % of control
CCOC(=O)c1ccc(OC(=O)Nc2cc(C)ccc2C)cc1,T/C,"endpoint: mean survival time, dose: 50.0 mg/kg/injection, schedule: Q01DX009 (ip), vehicle: saline with Tween-80",100 % of control
same,T/C,[1],103 % of control
same,T/C,[2],98 % of control and 101 % of control
same,T/C,[3],97 % of control
same,T/C,[4],100 % of control
same,T/C,[5],113 % of control and 109 % of control
same,T/C,[6],92 % of control
same,T/C,[7],102 % of control
same,T/C,[8],114 % of control and 102 % of control
same,T/C,[9],94 % of control
Nc1ccn(C2CC(CO)C(O)C2O)c(=O)n1 (stereo not drawn),T/C,"endpoint: mean survival time, dose: 150.0 mg/kg/injection, schedule: Q01DX009 (ip), vehicle: saline",204 % of control
O=C(O)C(O)(c1ccccc1)C1CCCC1 (stereo not drawn),T/C,[10],109 % of control
same,T/C,[11],112 % of control
CCCCCCCCCCCCCCCCOc1ccc(OCCCCCCCCC)cc1,T/C,[7],86 % of control
CC(=O)C(=O)Sc1ccccc1,T/C,"endpoint: mean survival time, dose: 12.5 mg/kg/injection, schedule: Q04DX002 (ip), vehicle: Klucel (hydroxypropylcellulose) (HPC)",94 % of control
same,T/C,"endpoint: mean survival time, dose: 25.0 mg/kg/injection, schedule: Q04DX002 (ip), vehicle: Klucel (hydroxypropylcellulose) (HPC)",105 % of control
same,T/C,"endpoint: mean survival time, dose: 50.0 mg/kg/injection, schedule: Q04DX002 (ip), vehicle: Klucel (hydroxypropylcellulose) (HPC)",90 % of control
CC(=O)Oc1c(Br)cc(Br)cc1-c1ccccc1,T/C,[12],95 % of control
same,T/C,"endpoint: mean survival time, dose: 100.0 mg/kg/injection, schedule: Q04DX003 (ip), vehicle: saline",117 % of control
same,T/C,[13],94 % of control
same,T/C,"endpoint: mean survival time, dose: 200.0 mg/kg/injection, schedule: Q04DX003 (ip), vehicle: saline",105 % of control
same,T/C,[14],101 % of control
same,T/C,"endpoint: mean survival time, dose: 400.0 mg/kg/injection, schedule: Q04DX003 (ip), vehicle: saline",114 % of control
O=C(Nc1ccc(Br)cc1)c1ccccc1,T/C,"endpoint: mean survival time, dose: 100.0 mg/kg/injection, schedule: Q01DX009 (ip), vehicle: saline with Tween-80",107 % of control
same,T/C,[3],102 % of control
same,T/C,[10],94 % of control
same,T/C,[6],102 % of control
same,T/C,[11],91 % of control
same,T/C,[9],100 % of control
N[C@H](C(=O)O)[C@@H]1CC(Cl)=NO1,T/C,"endpoint: mean survival time, dose: 0.5 mg/kg/injection, schedule: Q01DX009 (ip), vehicle: saline",113 % of control
same,T/C,"endpoint: mean survival time, dose: 0.78 mg/kg/injection, schedule: Q01DX009 (ip), vehicle: saline",115 % of control
same,T/C,"endpoint: mean survival time, dose: 1.0 mg/kg/injection, schedule: Q01DX009 (ip), vehicle: saline",122 % of control
same,T/C,"endpoint: mean survival time, dose: 2.0 mg/kg/injection, schedule: Q01DX009 (ip), vehicle: saline",124 % of control
same,T/C,"endpoint: mean survival time, dose: 3.0 mg/kg/injection, schedule: Q01DX009 (ip), vehicle: saline",167 % of control
same,T/C,"endpoint: mean survival time, dose: 3.12 mg/kg/injection, schedule: Q01DX009 (ip), vehicle: saline",153 % of control
same,T/C,"endpoint: mean survival time, dose: 6.0 mg/kg/injection, schedule: Q01DX009 (ip), vehicle: saline",165 % of control
same,T/C,"endpoint: mean survival time, dose: 6.25 mg/kg/injection, schedule: Q01DX009 (ip), vehicle: saline",151 % of control and 156 % of control
same,T/C,"endpoint: mean survival time, dose: 8.0 mg/kg/injection, schedule: Q01DX009 (ip), vehicle: saline",157 % of control
same,T/C,"endpoint: mean survival time, dose: 12.0 mg/kg/injection, schedule: Q01DX009 (ip), vehicle: saline",104 % of control
same,T/C,"endpoint: mean survival time, dose: 12.5 mg/kg/injection, schedule: Q01DX009 (ip), vehicle: saline",118 % of control and 122 % of control
same,T/C,"endpoint: mean survival time, dose: 16.0 mg/kg/injection, schedule: Q01DX009 (ip), vehicle: saline",155 % of control
same,T/C,"endpoint: mean survival time, dose: 25.0 mg/kg/injection, schedule: Q01DX009 (ip), vehicle: saline",92 % of control
same,T/C,"endpoint: mean survival time, dose: 100.0 mg/kg/injection, schedule: Q04DX003 (ip), vehicle: water",153 % of control
same,T/C,"endpoint: median survival time, dose: 0.5 mg/kg/injection, schedule: Q01DX009 (ip), vehicle: saline",122 % of control
same,T/C,"endpoint: median survival time, dose: 1.0 mg/kg/injection, schedule: Q01DX009 (ip), vehicle: saline",163 % of control
same,T/C,"endpoint: median survival time, dose: 2.0 mg/kg/injection, schedule: Q01DX009 (ip), vehicle: saline",180 % of control
same,T/C,"endpoint: median survival time, dose: 3.0 mg/kg/injection, schedule: Q01DX009 (ip), vehicle: saline",152 % of control
same,T/C,"endpoint: median survival time, dose: 4.0 mg/kg/injection, schedule: Q01DX009 (ip), vehicle: saline",150 % of control
same,T/C,"endpoint: median survival time, dose: 6.0 mg/kg/injection, schedule: Q01DX009 (ip), vehicle: saline",114 % of control and 109 % of control
same,T/C,"endpoint: median survival time, dose: 16.0 mg/kg/injection, schedule: Q01DX009 (ip), vehicle: saline",123 % of control
same,T/C,"endpoint: median survival time, dose: 24.0 mg/kg/injection, schedule: Q01DX009 (ip), vehicle: saline",72 % of control
COc1ccc(OC)c(-c2cn(C3CC(O)C(CO)O3)c(=O)[nH]c2=O)c1 (stereo not drawn),T/C,"endpoint: median survival time, dose: 12.5 mg/kg/injection, schedule: Q01DX005 (ip), vehicle: water",100 % of control
same,T/C,"endpoint: median survival time, dose: 25.0 mg/kg/injection, schedule: Q01DX005 (ip), vehicle: water",102 % of control
same,T/C,"endpoint: median survival time, dose: 50.0 mg/kg/injection, schedule: Q01DX005 (ip), vehicle: water",97 % of control
same,T/C,"endpoint: median survival time, dose: 100.0 mg/kg/injection, schedule: Q01DX005 (ip), vehicle: water",102 % of control
same,T/C,"endpoint: median survival time, dose: 200.0 mg/kg/injection, schedule: Q01DX005 (ip), vehicle: water",98 % of control
O=C1NC(=S)NC(=O)C1Cc1ccccc1O,T/C,[12],100 % of control
same,T/C,[13],100 % of control
same,T/C,[14],101 % of control
Cc1ccc(S(=O)(=O)NN=C(c2ccccc2)c2ccccc2)cc1,T/C,"endpoint: mean survival time, dose: 25.0 mg/kg/injection, schedule: Q01DX009 (ip), vehicle: water",101 % of control
same,T/C,"endpoint: mean survival time, dose: 50.0 mg/kg/injection, schedule: Q01DX009 (ip), vehicle: water",101 % of control
same,T/C,"endpoint: mean survival time, dose: 100.0 mg/kg/injection, schedule: Q01DX009 (ip), vehicle: water",95 % of control
same,T/C,"endpoint: mean survival time, dose: 200.0 mg/kg/injection, schedule: Q01DX009 (ip), vehicle: water",95 % of control
O=C1Nc2ccc(C(=O)O)c(O)c2C1=O,T/C,[1],96 % of control
same,T/C,[4],100 % of control
same,T/C,[7],89 % of control
Brc1ccc2ncc3ccccc3c2c1,T/C,[12],93 % of control
same,T/C,[13],98 % of control
same,T/C,[14],96 % of control
CC1=CC(C)(N=[N+]=[N-])CC(C)(C)C1 (stereo not drawn),T/C,"endpoint: mean survival time, dose: 37.5 mg/kg/injection, schedule: Q01DX009 (ip), vehicle: saline",97 % of control
same,T/C,"endpoint: mean survival time, dose: 75.0 mg/kg/injection, schedule: Q01DX009 (ip), vehicle: saline",97 % of control
CCCCCCCCCCC(=O)CCCC,T/C,[3],98 % of control
same,T/C,[6],94 % of control
same,T/C,[9],100 % of control
COc1nc(NC2OCC(O)C(O)C2O)cc(=O)n1C (stereo not drawn),T/C,"endpoint: median survival time, dose: 12.5 mg/kg/injection, schedule: Q01DX005 (ip), vehicle: saline",102 % of control
same,T/C,"endpoint: median survival time, dose: 25.0 mg/kg/injection, schedule: Q01DX005 (ip), vehicle: saline",101 % of control
same,T/C,"endpoint: median survival time, dose: 50.0 mg/kg/injection, schedule: Q01DX005 (ip), vehicle: saline",100 % of control
same,T/C,"endpoint: median survival time, dose: 100.0 mg/kg/injection, schedule: Q01DX005 (ip), vehicle: saline",105 % of control
same,T/C,"endpoint: median survival time, dose: 200.0 mg/kg/injection, schedule: Q01DX005 (ip), vehicle: saline",98 % of control
O=C1c2ccccc2C(=O)c2c(NCCN3CCNCC3)ccc(NCCN3CCNCC3)c21,T/C,"endpoint: mean survival time, dose: 4.0 mg/kg/injection, schedule: Q01DX009 (ip), vehicle: acid diluted with saline",100 % of control
same,T/C,"endpoint: mean survival time, dose: 8.0 mg/kg/injection, schedule: Q01DX009 (ip), vehicle: acid diluted with saline",102 % of control
same,T/C,"endpoint: mean survival time, dose: 16.0 mg/kg/injection, schedule: Q01DX009 (ip), vehicle: acid diluted with saline",106 % of control
same,T/C,"endpoint: mean survival time, dose: 32.0 mg/kg/injection, schedule: Q01DX009 (ip), vehicle: acid diluted with saline",104 % of control
Cc1cc(C)nc(NC(=S)N/N=C/c2ccc(O)cn2)n1,T/C,[2],87 % of control
same,T/C,[5],91 % of control
same,T/C,[8],91 % of control
Cc1ccc(OCc2c(COc3ccc(Cl)cc3)sc3ccc(Cl)cc23)cc1,T/C,[3],96 % of control
same,T/C,[9],88 % of control
